Assay results: ChEMBL document CHEMBL4311972, “Discovery of a benzothiophene-flavonol halting miltefosine and antimonial drug resistance in Leishmania parasites through the application of medicinal chemistry, screening and genomics” (Eur J Med Chem, 2019)
Several values for one entry are separate records, joined by “and”; a condition that tells them apart may be missing. Identical values can stand only once. Activity calls are given as the source filed them. No cut-off for these calls is given here.

Experiments:
[1] = target: Albumin (Bos taurus, UniProt P02769); assay: Binding affinity to bovine serum albumin in phosphate buffer assessed as increase in emission anisotropy at 530 nm at 5 uM measured at pH 8 by fluorescence emission spectrum analysis; type: ADME; conditions: cattle, isolated protein
[2] = Selectivity index, ratio of CC50 for human THP1 cells to EC50 for Trypanosoma brucei bloodstream form; type: toxicity; conditions: read-out: Ratio CC50/EC50
[3] = Toxicity in Syrian hamster infected with Leishmania infantum BCN150 promastigotes assessed as spleen weight at 40 mg/kg/day, po for 10 days formulated with 50% v/v cyclodextrin (reference value: 0.191 +/- 0.061 g); type: organism-based, Mesocricetus auratus; conditions: in vivo, 240 h
[4] = tested on: Trypanosoma cruzi; assay: Antitrypanosomal activity against Trypanosoma cruzi strain Y trypomastigotes infected in human HG39 cells by TaqMan probe based RT-PCR analysis; type: functional, organism-based
[5] = Thermodynamic solubility of the compound in water at >50 uM; type: physicochemical; conditions: buffer
[6] = tested on: Trypanosoma cruzi; assay: Antitrypanosomal activity against intracellular amastigote stage of Trypanosoma cruzi Y infected in human U2OS cells measured after 96 hrs by DRAQ5 dye based microscopic analysis; type: functional, organism-based
[7] = target: T1, CYP1A2 (Homo sapiens, UniProt P05177); assay: Inhibition of human microsomal CYP1A2 expressed in baculovirus infected insect cells at 10 uM using luciferin-1A2 as substrate preincubated with enzyme/substrate mixture for 30 mins followed by further incubation with NADPH for 30 mins by CYP450 luciferase Glo assay relative to control; type: ADME; conditions: probe luciferin-1A2
T1 sequence (P05177 whole entry): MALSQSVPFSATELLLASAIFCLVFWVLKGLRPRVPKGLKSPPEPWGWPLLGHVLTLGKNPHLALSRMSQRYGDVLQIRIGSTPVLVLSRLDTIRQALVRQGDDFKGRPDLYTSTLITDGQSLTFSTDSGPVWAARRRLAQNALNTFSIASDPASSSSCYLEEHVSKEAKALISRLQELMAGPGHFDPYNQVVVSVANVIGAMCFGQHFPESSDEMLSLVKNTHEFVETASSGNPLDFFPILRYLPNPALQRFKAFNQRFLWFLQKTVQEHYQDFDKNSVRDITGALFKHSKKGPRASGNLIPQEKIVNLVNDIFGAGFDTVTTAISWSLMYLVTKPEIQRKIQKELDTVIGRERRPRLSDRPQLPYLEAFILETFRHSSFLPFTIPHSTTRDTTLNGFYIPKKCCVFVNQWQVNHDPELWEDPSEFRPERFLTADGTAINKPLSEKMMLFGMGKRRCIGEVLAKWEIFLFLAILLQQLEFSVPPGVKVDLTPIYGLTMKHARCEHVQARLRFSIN

[8] = Toxicity in Syrian hamster infected with Leishmania infantum BCN150 promastigotes assessed as adverse effects at 20 mg/kg/every 12 hrs, po for 10 days formulated with 8% v/v DMSO measured daily; type: organism-based, Mesocricetus auratus; conditions: in vivo
[9] = tested on: Leishmania donovani; assay: Antileishmanial activity against Leishmania donovani BPK091 promastigotes transfected with Leishmania donovani BPK190 genomic cosmid DNA assessed as parasite growth at IC50 concentration incubated with compound for 3 days under selective pressure and selection cycle repeated 10 times and measured at 37 days of selection relative to control; type: functional
[10] = Cytotoxicity against human A549 cells assessed as cell growth at […] incubated for 48 hrs by Celltiter-Glo luminescence assay relative to control; type: cell-based; design: dose or concentration left out as unconfirmed; conditions: read-out: Activity
[11] = tested on: Leishmania infantum; assay: Antileishmanial activity against luciferase expressing intracellular amastigote stage of Leishmania infantum infected in human THP1 cells assessed as parasite growth inhibition measured after 48 to 72 hrs by steady-glo luciferase assay; type: functional, organism-based; conditions: Leishmania infantum, THP-1; read-out: EC50
[12] = tested on: 786-0; assay: Mitochondrial toxicity in human 786-0 cells at 10 uM incubated with compound for 6 hrs followed by incubation with MitoTracker Red chloromethyl-X-rosamine dye for 45 mins by imaging analysis; type: cell-based; conditions: 786-0, 6 h
[13] = tested on: Leishmania donovani; assay: Antileishmanial activity against promastigote form of Leishmania donovani assessed as parasite growth inhibition; type: functional, organism-based
[14] = tested on: Leishmania major; assay: Antileishmanial activity against promastigote form of Leishmania major assessed as parasite growth inhibition; type: functional, organism-based
[15] = Cmax in BALB/c mouse at 20 mg/kg, po measured upto 72 hrs by snapshot method; type: ADME, organism-based; design: dose 20 mg/kg, route oral; conditions: in vivo
[16] = Chemical stability of compound in PBS at 20 uM at pH 8 exposed to air bubbling followed by supplementation with human serum albumin measured for 6 hrs by UV-vis spectrophotometry analysis; type: physicochemical
[17] = tested on: Trypanosoma cruzi; assay: Antitrypanosomal activity against intracellular amastigote stage of Trypanosoma cruzi 92.80 cl2 infected in human U2OS cells measured after 96 hrs by DRAQ5 dye based microscopic analysis; type: functional, organism-based
[18] = target: CYP2C19 (Homo sapiens, UniProt P33261); assay: Inhibition of human microsomal CYP2C19 expressed in baculovirus infected insect cells at 10 uM using luciferin-H EGE as substrate preincubated with enzyme/substrate mixture for 30 mins followed by further incubation with NADPH for 30 mins by CYP450 luciferase Glo assay relative to control; type: ADME; conditions: probe luciferin-H EGE
[19] = tested on: Trypanosoma cruzi; assay: Antitrypanosomal activity against intracellular amastigote stage of Trypanosoma cruzi Silvio X10/1 infected in human U2OS cells measured after 96 hrs by DRAQ5 dye based microscopic analysis; type: functional, organism-based
[20] = Plasma concentration in syrian hamster infected with Leishmania infantum BCN150 promastigote at 40 mg/kg/day, po for 10 days formulated with 50% v/v cyclodextrin; type: ADME, organism-based, Mesocricetus auratus
[21] = target: CYP3A4 (Homo sapiens, UniProt P08684); assay: Inhibition of human microsomal CYP3A4 expressed in baculovirus infected insect cells at 10 uM using luciferin-IPA as substrate preincubated with enzyme/substrate mixture for 30 mins followed by further incubation with NADPH for 30 mins by CYP450 luciferase Glo assay relative to control; type: ADME; conditions: probe luciferin-IPA
[22] = tested on: Trypanosoma brucei; assay: Antitrypanosomal activity against Trypanosoma brucei bloodstream form assessed as parasite growth inhibition incubated for 72 hrs by resazurin dye based assay; type: functional, organism-based; conditions: Trypanosoma brucei, 72 h; read-out: EC50
[23] = target: CYP2D6 (Homo sapiens, UniProt P10635); assay: Inhibition of human microsomal CYP2D6 expressed in baculovirus infected insect cells at 10 uM using luciferin-ME as substrate preincubated with enzyme/substrate mixture for 30 mins followed by further incubation with NADPH for 30 mins by CYP450 luciferase Glo assay relative to control; type: ADME; conditions: probe luciferin-ME
[24] = tested on: Trypanosoma cruzi; assay: Antitrypanosomal activity against intracellular amastigote stage of Trypanosoma cruzi CL Brener infected in human U2OS cells measured after 96 hrs by DRAQ5 dye based microscopic analysis; type: functional, organism-based
[25] = target: hERG (KCNH2) (Homo sapiens, UniProt Q12809); assay: Inhibition of human ERG at 10 uM incubated for 2 hrs by fluorescence polarization assay relative to control
[26] = tested on: Trypanosoma cruzi; assay: Antitrypanosomal activity against intracellular amastigote stage of Trypanosoma cruzi ARMA 13 cl1 infected in human U2OS cells measured after 96 hrs by DRAQ5 dye based microscopic analysis; type: functional, organism-based
[27] = Toxicity in Syrian hamster infected with Leishmania infantum BCN150 promastigotes assessed as adverse effects at 20 mg/kg/every 12 hrs, po for 10 days formulated with 30% v/v cyclodextrin measured daily; type: organism-based, Mesocricetus auratus; conditions: in vivo
[28] = Toxicity in Syrian hamster infected with Leishmania infantum BCN150 promastigotes assessed as liver lesions at 20 mg/kg/day, po for 10 days; type: organism-based, Mesocricetus auratus; conditions: in vivo, 240 h
[29] = Plasma concentration in syrian hamster infected with Leishmania infantum BCN150 promastigote at 20 mg/kg/day, po for 10 days; type: ADME, organism-based, Mesocricetus auratus

Sequence of CYP2D6 (P10635 whole entry): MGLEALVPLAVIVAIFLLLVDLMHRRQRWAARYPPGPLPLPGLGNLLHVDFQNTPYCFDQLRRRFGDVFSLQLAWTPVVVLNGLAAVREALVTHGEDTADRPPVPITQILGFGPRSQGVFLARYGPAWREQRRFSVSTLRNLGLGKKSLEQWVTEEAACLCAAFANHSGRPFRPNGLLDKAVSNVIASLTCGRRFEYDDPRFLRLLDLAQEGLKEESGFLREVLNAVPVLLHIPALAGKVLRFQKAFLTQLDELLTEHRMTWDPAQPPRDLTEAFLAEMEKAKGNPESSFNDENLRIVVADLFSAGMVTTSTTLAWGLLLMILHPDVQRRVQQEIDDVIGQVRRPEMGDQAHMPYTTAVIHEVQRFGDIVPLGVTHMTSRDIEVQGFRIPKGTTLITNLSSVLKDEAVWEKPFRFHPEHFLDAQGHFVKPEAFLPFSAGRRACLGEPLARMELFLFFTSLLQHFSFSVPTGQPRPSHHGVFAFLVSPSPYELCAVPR
Sequence of CYP3A4 (P08684 whole entry): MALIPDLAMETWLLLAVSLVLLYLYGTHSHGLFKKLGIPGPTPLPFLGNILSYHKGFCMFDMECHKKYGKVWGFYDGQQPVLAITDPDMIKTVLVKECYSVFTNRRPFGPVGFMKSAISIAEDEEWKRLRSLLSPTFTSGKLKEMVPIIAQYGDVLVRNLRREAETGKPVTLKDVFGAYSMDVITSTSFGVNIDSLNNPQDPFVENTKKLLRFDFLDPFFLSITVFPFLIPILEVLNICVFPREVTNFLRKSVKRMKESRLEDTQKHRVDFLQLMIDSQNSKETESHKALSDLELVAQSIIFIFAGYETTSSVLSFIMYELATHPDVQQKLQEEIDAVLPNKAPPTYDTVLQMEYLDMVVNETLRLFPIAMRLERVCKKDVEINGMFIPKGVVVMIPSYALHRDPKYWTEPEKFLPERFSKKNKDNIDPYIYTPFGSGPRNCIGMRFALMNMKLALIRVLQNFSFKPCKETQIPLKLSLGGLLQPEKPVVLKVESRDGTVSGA
Sequence of CYP2C19 (P33261 whole entry): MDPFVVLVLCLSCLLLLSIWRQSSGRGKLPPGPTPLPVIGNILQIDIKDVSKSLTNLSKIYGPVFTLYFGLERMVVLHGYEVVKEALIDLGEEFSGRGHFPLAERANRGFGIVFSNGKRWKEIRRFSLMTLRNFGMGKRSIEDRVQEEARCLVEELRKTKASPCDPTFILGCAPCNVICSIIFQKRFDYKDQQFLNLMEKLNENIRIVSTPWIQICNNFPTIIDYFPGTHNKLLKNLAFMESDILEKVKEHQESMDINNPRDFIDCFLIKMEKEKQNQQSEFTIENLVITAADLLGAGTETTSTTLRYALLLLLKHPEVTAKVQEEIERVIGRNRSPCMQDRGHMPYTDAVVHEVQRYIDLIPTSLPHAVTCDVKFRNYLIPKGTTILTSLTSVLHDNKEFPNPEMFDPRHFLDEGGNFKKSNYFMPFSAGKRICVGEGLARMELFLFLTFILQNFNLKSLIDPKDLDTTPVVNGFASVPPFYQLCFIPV
Sequence of hERG (KCNH2) (Q12809 whole entry): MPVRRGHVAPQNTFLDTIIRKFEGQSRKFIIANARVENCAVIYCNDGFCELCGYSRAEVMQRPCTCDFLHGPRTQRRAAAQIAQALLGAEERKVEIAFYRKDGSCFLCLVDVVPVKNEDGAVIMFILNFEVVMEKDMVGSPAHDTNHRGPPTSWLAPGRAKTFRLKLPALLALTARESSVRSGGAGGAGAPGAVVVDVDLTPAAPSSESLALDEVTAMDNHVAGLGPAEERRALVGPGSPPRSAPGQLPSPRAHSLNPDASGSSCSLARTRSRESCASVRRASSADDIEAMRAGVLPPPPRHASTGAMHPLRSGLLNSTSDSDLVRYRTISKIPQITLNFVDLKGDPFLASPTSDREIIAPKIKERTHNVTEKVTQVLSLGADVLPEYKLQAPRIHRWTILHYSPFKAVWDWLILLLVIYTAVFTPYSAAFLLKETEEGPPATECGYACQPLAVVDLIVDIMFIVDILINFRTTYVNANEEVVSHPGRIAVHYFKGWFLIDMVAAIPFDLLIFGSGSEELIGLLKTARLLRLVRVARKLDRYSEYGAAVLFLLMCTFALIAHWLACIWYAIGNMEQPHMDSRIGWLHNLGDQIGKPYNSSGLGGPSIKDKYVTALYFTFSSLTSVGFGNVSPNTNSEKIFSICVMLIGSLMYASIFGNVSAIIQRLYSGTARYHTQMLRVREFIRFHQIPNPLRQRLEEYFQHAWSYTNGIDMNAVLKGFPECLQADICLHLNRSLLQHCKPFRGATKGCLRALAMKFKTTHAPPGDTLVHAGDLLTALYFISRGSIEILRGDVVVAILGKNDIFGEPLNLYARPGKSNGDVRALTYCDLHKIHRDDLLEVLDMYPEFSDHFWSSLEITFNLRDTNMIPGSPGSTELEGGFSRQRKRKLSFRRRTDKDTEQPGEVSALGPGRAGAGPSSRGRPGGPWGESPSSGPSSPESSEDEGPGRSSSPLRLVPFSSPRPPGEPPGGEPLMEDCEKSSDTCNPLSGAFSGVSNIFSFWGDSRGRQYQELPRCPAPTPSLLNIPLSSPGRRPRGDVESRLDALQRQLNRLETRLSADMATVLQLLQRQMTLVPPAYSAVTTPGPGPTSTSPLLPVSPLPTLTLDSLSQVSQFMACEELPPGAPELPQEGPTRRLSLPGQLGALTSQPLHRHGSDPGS
Sequence of Albumin (P02769 whole entry): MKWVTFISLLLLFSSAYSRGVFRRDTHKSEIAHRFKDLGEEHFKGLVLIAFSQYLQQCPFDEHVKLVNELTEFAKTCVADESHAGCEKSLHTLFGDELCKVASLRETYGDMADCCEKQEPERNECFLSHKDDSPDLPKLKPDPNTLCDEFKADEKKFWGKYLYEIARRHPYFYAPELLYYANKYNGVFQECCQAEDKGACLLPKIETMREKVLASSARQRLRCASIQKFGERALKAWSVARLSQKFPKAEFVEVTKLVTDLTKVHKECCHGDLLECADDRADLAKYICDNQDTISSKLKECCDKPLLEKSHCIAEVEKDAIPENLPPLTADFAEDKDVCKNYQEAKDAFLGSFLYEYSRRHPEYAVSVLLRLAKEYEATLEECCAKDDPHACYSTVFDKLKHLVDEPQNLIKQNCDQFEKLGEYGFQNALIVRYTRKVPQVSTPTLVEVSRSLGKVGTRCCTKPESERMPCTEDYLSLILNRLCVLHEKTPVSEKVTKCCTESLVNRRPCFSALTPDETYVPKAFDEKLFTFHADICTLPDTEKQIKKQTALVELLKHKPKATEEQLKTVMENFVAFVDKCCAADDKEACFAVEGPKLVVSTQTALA

Row | SMILES | EC50 [4] | Therm_solubility [5] | inhibition at 0.5 h, 10 µM [7] | Activity [9] | viability at 48 h [10] | EC50 [11] | Activity [12] | EC50 [13] | inhibition at 0.5 h, 10 µM [18] | inhibition at 0.5 h, 10 µM [21] | EC50 [22] | inhibition at 0.5 h, 10 µM [23] | inhibition at 2 h, 10 µM [25] | also measured
1 | COc1ccc2oc(-c3csc4ccccc34)c(O)c(=O)c2c1 | 7500 nM | Insoluble | 99.7% | >50% | 3.19% | 1880 nM | -22.85% | 3400 nM | -6.32% | 23.3% | 800 nM | 26.2% | 32% | Activity [1]: Active; selectivity ratio [2]: 33; Activity [3]: 0.191 g; EC50 [6]: 900 nM; Activity [8]: Non-Toxic; EC50 [14]: 6700 nM; Cmax [15]: 1.96 µM and 630 ng/mL; Stability [16]: Stable; EC50 ([17]; 92.80 cl2, U2OS): 700 nM; EC50 ([19]; Silvio X10/1, U2OS): 300 nM; concentration at 240 h [20]: 0.038 µM; EC50 [24]: 600 nM; EC50 ([26]; ARMA 13 cl1, U2OS): 1200 nM; Activity [27]: Non-Toxic
2 | CCCCCCCCCCCCCCCCOP(=O)([O-])OCC[N+](C)(C)C [MILTEFOSINE] | 12500 nM | Insoluble | -20% | >50% | 95.8% | 2510 to 3200 nM | 3.4% | 9000 nM | 7.9% | 8.4% | 34000 nM | 30.8% | -16.9% | inhibition [6]: Active; Activity [28]: Non-Toxic; inhibition [14]: Active; inhibition [17]: Active; inhibition [19]: Active; inhibition [24]: Active; concentration at 240 h [29]: 59.3 µM; inhibition [26]: Active
